# In patent publication US20110152207A1, “USE OF VITAMIN D GLYCOSIDES AND SULFATES FOR TREATMENT OF DISEASE” (priority 2009, published 2011):
# Marks after values point to notes of the source that are not given here.
# Legend:
# [1] = tested on: β-glucuronidase activity, duodenum lumen contents; test: β-glucuronidase cleavage in duodenum lumen contents, free 1,25-D3 by RIA; type: in vitro ADME, rats; conditions: 2100 pg added
# Description: (§2) The proximal 25 cm of duodenum/jejunum, the caudal 12 cm of ileum, and the cranial 12 cm of colon were removed. The contents from the lumen of each section were flushed with 3 ml water, collected, and pooled. Three-ml aliquots of intestinal contents were placed into tubes. To the tubes, either 2100 pg (3.53 pmoles) β-gluc-1,25-D3 was added and incubated at 37° C. for 0, 1, 3, or 6 hrs, or 150 pg (0.36 pmoles) of 1,25-D3 was added and incubated for 0 or 6 hrs. […] Acetonitrile (3 ml) was added to each tube after incubation to end all enzymatic activity, after which the 1,25-D3 was extracted. Tritiated 1,25-D3 was added to each tube to assess extraction efficiency. The preparations were cleaned by HPLC, and the samples were analyzed for 1,25-D3 content by RIA (Heartland Assays, Ames, Iowa) (Hollis et al., J. Steroid Biochem. Mol. Biol. 2007 103(3-5):473-6).
# [2] = tested on: β-glucuronidase activity, ileum lumen contents; test: β-glucuronidase cleavage in ileum lumen contents, free 1,25-D3 by RIA; type: in vitro ADME, rats; conditions: 2100 pg added
# Description: as §2
# [3] = tested on: Cyp24; test: Cyp24 mRNA expression in colon of mice after a single oral dose; type: in vivo; conditions: 6 hrs; for increase in Cyp24 expression in the colon: relative to untreated mice
# Description: (§1) Mice were decapitated 6 hrs later following light anesthesia under inhaled halothane. […] Tissue samples were flushed with ice-cold phosphate-buffered saline and immediately homogenized in 1 ml of TRIzol® reagent (Invitrogen Corp., Carlsbad, Calif.). Samples were then kept frozen at −86° C. prior to processing for RNA. For processing RNA, each TRIzol® homogenate was thawed at room temperature and 500 μl placed in a clean microfuge tube, mixed thoroughly with 100 μl chloroform for 15 sec and then centrifuged at 12,000×g for 15 min at 4° C. The upper aqueous phase was removed and mixed with 0.93 volumes of 75% EtOH. The mixture was then applied to an RNeasy spin column (Qiagen Inc., Germantown, Md.) and processed as described by the manufacturer with the exception that an additional wash with 2M NaCl/2 mM EDTA (pH 4.0) was included (Das et al. J Vet Diagn Invest. 2009; 21:771-778). RNA was eluted in 50 μl of water and the concentration obtained by UV spectrometry. One microgram of RNA was then used as a template for production of cDNA in a 20-μl reaction volume using random hexamers and Superscript III as described by the manufacturer (Invitrogen, Carlsbad, Calif.). Afterwards, samples were diluted to 100 μl final volume with TE buffer and stored at −20° C. prior to PCR analysis. Quantitative real-time RT-PCR was performed using a Stratagene Mx3005p cycler (Stratagene, La Jolla, Calif.) and PerfeCTa® SYBR® Green FastMix®, ROX reagent (Quanta Biosciences, Gaithersburg, Md.). Amplification of target cDNAs was accomplished with the following primers: Aliquots (8.3 ng) of cDNA were amplified under the following conditions: 95° C. for 30 sec, followed by 45 cycles of 95° C. for 1 sec and 57° C. for 30 sec. […] Oligonucleotides were obtained from Integrated DNA Technologies (Coralville, Iowa).
# [4] = tested on: Cyp24; test: Cyp24 mRNA expression in duodenum of mice after a single oral dose; type: in vivo; conditions: for Cyp24 expression in the duodenum, induction over control mice: 24 pmol per os
# Description: as §1
# [5] = tested on: DSS-induced inflammation of the lower colon; test: Dextran sodium sulfate (DSS) mouse model of IBD; type: in vivo; conditions: DSS mice; for Fecal Blood Score: scale 0-3
# Source text: In this example, β-gluc-1,25-D3 compounds, alone or in combination with 25-β-glucuronide-25-hydroxyvitamin D3 compounds (hereinafter β-gluc-25-D3) were incorporated into the diet of mice and compared to equimolar 1,25-D3 with respect to therapeutic effects on IBD and induction of calcemia. A standard mouse model of IBD comprising administering dextran sodium sulfate (DSS) to induce inflammation of the lower colon was used to study these effects. Vitamin D treatments were first initiated for 4 days. After 4 days, mice were fed DSS-water for 7 days, allowed one day to recover, and sacrificed. Colon length, plasma calcium, fecal blood score, and body weight were assayed. Colon length is a standard marker of intestinal inflammation in the literature, with shortened colon length being an indicator of inflammation. A 1-cm section of the mid-colon was removed, fixed in formalin, and stained with hematoxylin & eosin for microscopic histopathologic evaluation by a veterinary pathologist blinded to the treatments. Each tissue section received a score from 0 to 4 reflecting absence of lesion to severe, extensive lesion for each of three criteria: (1) the degree of erosion/ulceration of colon mucosa; (2) the degree of infiltration of the tissues by inflammatory cells; and (3) the degree of submucosal edema. The sum of the score of each of these criteria constitutes the histopathological score for the tissue with a zero score representing normal tissue based on all criteria, and the worst possible outcome being a score of 12.
# [6] = tested on: LNCaP cells; test: LNCaP cell proliferation (CELLTITER BLUE); type: cell-based, human; conditions: six days, control = 100
# Description: LNCaP cells (ATCC # CRL-1740) are malignant prostate cancer cells originally obtained from a lymph node of a person whose prostatic cancer had metastasized to the lymph node. LNCaP cells were grown in tissue culture using RPMI-1640 media with 10% fetal bovine serum. Wells of two 48-well tissue culture plates were seeded with 5000 LNCaP cells/well. […] Half the media was replaced with fresh media with treatments on the third day of the treatment period. By day 6 of treatment, wells of control untreated cells were approximately 60% confluent. The live cell numbers in each well at the end of treatment were assessed using the “CELLTITER BLUE”-brand assay kit (Promega Corp., Madison, Wis.). The assay is based on the ability of living cells to convert a redox dye (resazurin) into a fluorescent end product (resorufin).
# [7] = tested on: DU-145 cells; test: DU-145 cell proliferation (CELLTITER BLUE); type: cell-based, human; conditions: for Proliferation index (Mean ± SEM): 4 days, control = 100
# Description: LNCaP cells (ATCC # CRL-1740) are malignant prostate cancer cells originally obtained from a lymph node of a person whose prostatic cancer had metastasized to the lymph node. LNCaP cells were grown in tissue culture using RPMI-1640 media with 10% fetal bovine serum. Wells of two 48-well tissue culture plates were seeded with 5000 LNCaP cells/well. […] Half the media was replaced with fresh media with treatments on the third day of the treatment period. By day 6 of treatment, wells of control untreated cells were approximately 60% confluent. The live cell numbers in each well at the end of treatment were assessed using the “CELLTITER BLUE”-brand assay kit (Promega Corp., Madison, Wis.). The assay is based on the ability of living cells to convert a redox dye (resazurin) into a fluorescent end product (resorufin). […] A similar study was performed using a second human-derived prostatic cancer cell line known as DU-145 (ATCC# HTB-81). […] Exp. Med. Biol. 1995 375:53-63). The DU-145 cells were propagated in Eagle's Minimum Essential Medium with 10% fetal bovine serum. The cells were treated in culture for just 4 days, with half the media replaced with fresh media on day 3 of treatment. Cells were 40% confluent at the end of treatment.
smiles,measurement,setting,value
"C=C1/C(=C\C=C2/CCC[C@]3(C)[C@@H]([C@H](C)CCCC(C)(C)O[C@@H]4O[C@H](C(=O)O)[C@@H](O)[C@H](O)[C@H]4O)CC[C@@H]23)C[C@@H](O)C[C@@H]1O [β-gluc-1,25-D3, 25-β-glucuronide-1,25-dihydroxyvitamin D3]","Measured Free 1,25-dihydroxy vitamin D",[1]; 0 hrs incubation,29 pg
same,"Measured Free 1,25-dihydroxy vitamin D",[1]; 1 hr incubation,38 pg
same,"Measured Free 1,25-dihydroxy vitamin D",[1]; 3 hrs incubation,63 pg
same,"Measured Free 1,25-dihydroxy vitamin D",[1]; 6 hrs incubation,105 pg
same,"Measured Free 1,25-dihydroxy vitamin D",[2]; 0 hrs incubation,39 pg
same,"Measured Free 1,25-dihydroxy vitamin D",[2]; 1 hr incubation,1323 pg
same,"Measured Free 1,25-dihydroxy vitamin D",[2]; 3 hrs incubation,1127 pg
same,"Measured Free 1,25-dihydroxy vitamin D",[2]; 6 hrs incubation,1342 pg
same,"colon Cyp24 response relative to the equimolar dose of 1,25-D3",[3]; 12 pmol per os,about 20 times
same,increase in Cyp24 expression in the colon,[3]; 12 pmol per os,60 fold
same,increase in Cyp24 in the colon over control mice,[3]; 24 pmol per os,about 700 fold
same,increase in Cyp24 expression in the colon,[3]; 48 pmol per os,> 400 fold
same,"Cyp24 expression in the duodenum, induction over control mice",[4]; 3 hours,1300 fold
same,"Cyp24 expression in the duodenum, induction over control mice",[4]; 6 hours,500 fold
same,"induction of Cyp24 in the duodenum versus analogous dose of 1,25-D3","[4]; 6, 12, 24, 48 pmol per os, 6 hrs","consistently less effective than the analogous dose of 1,25-D3"
same,Histopathology score (0-12),[5]; 14 ng/day,6.66 ± 0.53^c
same,Colon Length,[5]; 14 ng/day in diet,5.78 ± 0.09 cm
same,Final Body Weight,[5]; 14 ng/day in diet,21.91 ± 0.49 g
same,Fecal Blood Score,[5]; 14 ng/day,0.55 ± 0.26
same,Histopathology score (0-12),[5]; 70 ng/day,6.33 ± 0.74^c
same,Colon Length,[5]; 70 ng/day in diet,5.41 ± 0.15 cm
same,Final Body Weight,[5]; 70 ng/day in diet,21.00 ± 0.68 g
same,Fecal Blood Score,[5]; 70 ng/day,0.22 ± 0.08^c
same,Histopathology score (0-12),[5]; 350 ng/day,8.33 ± 0.64
same,Colon Length,[5]; 350 ng/day in diet,4.72 ± 0.15 cm
same,Final Body Weight,[5]; 350 ng/day in diet,19.62 ± 0.69 g
same,Fecal Blood Score,[5]; 350 ng/day,0.88 ± 0.43
same,reducing inflammation,[5]; alone at 70 ng/day,"numerically better than 1,25-D3"
same,Proliferation index (Mean ± SEM),[6]; 20 nM,95.4 ± 2.4
same,Proliferation index (Mean ± SEM),[6]; 100 nM,73.1 ± 9.5
same,Proliferation index (Mean ± SEM),"[7]; DU-145, 20 nM",90.3 ± 2.2
same,Proliferation index (Mean ± SEM),"[7]; DU-145, 100 nM",88.7 ± 2.8
same,reducing cell proliferation versus native hormone,[7]; DU-145 cells,as active as the native hormone
